Legend:
Format in all cases: in vivo
redroot pigweed = experiment: Test Example 3: weedkilling efficacy through soil treatment; L: redroot pigweed; details: soil treatment, treatment dosage 315 g/ha
Description: (§1) Weedkilling Efficacy Test Through Soil Treatment
(§2) Sterilized diluvial soil was introduced into 21 cm long, 13 cm wide, 7 cm deep plastic boxes, and seeds of crabgrass, green foxtail, barnyard grass, wild oat, black-grass, Italian ryegrass, common wind-grass, Indian mallow, redroot pigweed, fig-leafed goosefoot, chickweed, catchweed, birds-eye speedwell, corn, soybean, rice, wheat, beet and rapeseed were each spot-sown, and covered with about 1.5 cm of soil. Next, emulsions of compounds of the present invention prepared according to compounding example 2 were diluted with water to give the specified dosages, and applied uniformly onto the soil surface with a small sprayer. The plants were grown by placing the plastic boxes in a greenhouse at 25 to 30° C., and 3 weeks after the pesticide treatment the effect on each type of plant was investigated on the basis of the assessment criteria of test example 1.
(§3) A: barnyard grass, B: bulrush, C: oval-leafed pondweed, D: crabgrass, E: green foxtail, F: barnyard grass, G: wild oat, H: black-grass, I: Italian ryegrass, J: common wind-grass, K: Indian mallow, L: redroot pigweed, M: fig-leafed goosefoot, N: chickweed, O: catchweed, p: birds-eye speedwell, a: transplanted rice, b: directly sown rice, c: corn, d: soybean, e: wheat, f: beet, g: rapeseed
(§4) Further, pesticide dosage (g/ha) indicates the concentration regulated such that treatment was with only the stated number of grams (g), when calculated per hectare (ha).

crabgrass = experiment: Test Example 3: weedkilling efficacy through soil treatment; D: crabgrass; details: soil treatment, treatment dosage 315 g/ha
Description: as §1, §2, §3, §4

bulrush [1] = experiment: Test Example 1: weedkilling efficacy, preemergent weed treatment in the submerged state; B: bulrush; details: treatment dosage 252 g/ha
Summary of the method: (§5)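 Pre-emergence paddy test: weed seeds sown in submerged alluvial soil (4 cm water), 2.5-leaf rice transplanted, water-diluted emulsion applied to water surface at sowing at stated g/ha. Scored at 3 weeks, greenhouse 25–30 °C.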

barnyard grass [2] = experiment: Test Example 2: weedkilling efficacy, growth period weed treatment in the submerged state; A: barnyard grass; details: treatment dosage 252 g/ha
Summary of the method: (§6)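 Seedlings at 1-2 leaves in 4 cm-deep submerged alluvial soil received emulsion formulations on the water surface, dosed per hectare; effects were judged 3 weeks on.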

transplanted rice = experiment: Test Example 1: preemergent weed treatment in the submerged state, effect on crop; a: transplanted rice; details: treatment dosage 252 g/ha
Summary of the method: as §5

black-grass = experiment: Test Example 3: weedkilling efficacy through soil treatment; H: black-grass; details: soil treatment, treatment dosage 315 g/ha
Description: as §1, §2, §3, §4

bulrush [3] = experiment: Test Example 2: weedkilling efficacy, growth period weed treatment in the submerged state; B: bulrush; details: treatment dosage 252 g/ha
Summary of the method: as §6

green foxtail = experiment: Test Example 3: weedkilling efficacy through soil treatment; E: green foxtail; details: soil treatment, treatment dosage 315 g/ha
Description: as §1, §2, §3, §4

birds-eye speedwell = experiment: Test Example 3: weedkilling efficacy through soil treatment; p: birds-eye speedwell; details: soil treatment, treatment dosage 315 g/ha
Description: as §1, §2, §3, §4

beet = experiment: Test Example 3: soil treatment, effect on crop; f: beet; details: soil treatment, treatment dosage 315 g/ha
Description: as §1, §2, §3, §4

barnyard grass [4] = experiment: Test Example 1: weedkilling efficacy, preemergent weed treatment in the submerged state; A: barnyard grass; details: treatment dosage 252 g/ha
Summary of the method: as §5

Indian mallow = experiment: Test Example 3: weedkilling efficacy through soil treatment; K: Indian mallow; details: soil treatment, treatment dosage 315 g/ha
Description: as §1, §2, §3, §4

oval-leafed pondweed [5] = experiment: Test Example 2: weedkilling efficacy, growth period weed treatment in the submerged state; C: oval-leafed pondweed; details: treatment dosage 252 g/ha
Summary of the method: as §6

directly sown rice = experiment: Test Example 3: soil treatment, effect on crop; b: directly sown rice; details: soil treatment, treatment dosage 315 g/ha
Description: as §1, §2, §3, §4

fig-leafed goosefoot = experiment: Test Example 3: weedkilling efficacy through soil treatment; M: fig-leafed goosefoot; details: soil treatment, treatment dosage 315 g/ha
Description: as §1, §2, §3, §4

oval-leafed pondweed [6] = experiment: Test Example 1: weedkilling efficacy, preemergent weed treatment in the submerged state; C: oval-leafed pondweed; details: treatment dosage 252 g/ha
Summary of the method: as §5

wild oat = experiment: Test Example 3: weedkilling efficacy through soil treatment; G: wild oat; details: soil treatment, treatment dosage 315 g/ha
Description: as §1, §2, §3, §4

chickweed = experiment: Test Example 3: weedkilling efficacy through soil treatment; N: chickweed; details: soil treatment, treatment dosage 315 g/ha
Description: as §1, §2, §3, §4

soybean = experiment: Test Example 3: soil treatment, effect on crop; d: soybean; details: soil treatment, treatment dosage 315 g/ha
Description: as §1, §2, §3, §4

wheat = experiment: Test Example 3: soil treatment, effect on crop; e: wheat; details: soil treatment, treatment dosage 315 g/ha
Description: as §1, §2, §3, §4

corn = experiment: Test Example 3: soil treatment, effect on crop; c: corn; details: soil treatment, treatment dosage 315 g/ha
Description: as §1, §2, §3, §4

Italian ryegrass = experiment: Test Example 3: weedkilling efficacy through soil treatment; I: Italian ryegrass; details: soil treatment, treatment dosage 315 g/ha
Description: as §1, §2, §3, §4

| Structure (SMILES) | L: redroot pigweed, weedkilling efficacy grade (redroot pigweed) | D: crabgrass, weedkilling efficacy grade (crabgrass) | B: bulrush, weed kill grade (bulrush [1]) | A (barnyard grass) weedkilling efficacy grade (barnyard grass [2]) | a: transplanted rice, effect on crop grade (transplanted rice) | H: black-grass, weedkilling efficacy grade (black-grass) | B (bulrush) weedkilling efficacy grade (bulrush [3]) | E: green foxtail, weedkilling efficacy grade (green foxtail) | P: birds-eye speedwell, weedkilling efficacy grade (birds-eye speedwell) | f: beet, effect on crop grade (beet) | A: barnyard grass, weed kill grade (barnyard grass [4]) | K: Indian mallow, weedkilling efficacy grade (Indian mallow) | C (oval-leafed pondweed) weedkilling efficacy grade (oval-leafed pondweed [5]) | b: directly sown rice, effect on crop grade (directly sown rice) | M: fig-leafed goosefoot, weedkilling efficacy grade (fig-leafed goosefoot) | C: oval-leafed pondweed, weed kill grade (oval-leafed pondweed [6]) | G: wild oat, weedkilling efficacy grade (wild oat) | N: chickweed, weedkilling efficacy grade (chickweed) | d: soybean, effect on crop grade (soybean) | e: wheat, effect on crop grade (wheat) | further results |
| --- | --- | --- | --- | --- | --- | --- | --- | --- | --- | --- | --- | --- | --- | --- | --- | --- | --- | --- | --- | --- | --- |
| CC(C)(C(=O)Nc1ncc(Cl)s1)N1COCN(c2ccccc2)C1=O [A-1-07] | 5 (weed kill ratio 90% or more, (practically complete withering)) | 5 (weed kill ratio 90% or more, (practically complete withering)) | 5 (weed kill ratio 90% or more, (practically complete withering)) | 5 (weed kill ratio 90% or more, (practically complete withering)) | 0 (weed kill ratio 5% or less (practically no effect)) | 5 (weed kill ratio 90% or more, (practically complete withering)) | 5 (weed kill ratio 90% or more, (practically complete withering)) | 5 (weed kill ratio 90% or more, (practically complete withering)) | 5 (weed kill ratio 90% or more, (practically complete withering)) | 5 (weed kill ratio 90% or more, (practically complete withering)) | 5 (weed kill ratio 90% or more, (practically complete withering)) | 4 (weed kill ratio 70% or more, less than 90%) | 5 (weed kill ratio 90% or more, (practically complete withering)) | 5 (weed kill ratio 90% or more, (practically complete withering)) | 4 (weed kill ratio 70% or more, less than 90%) | 5 (weed kill ratio 90% or more, (practically complete withering)) | 5 (weed kill ratio 90% or more, (practically complete withering)) | 4 (weed kill ratio 70% or more, less than 90%) | 1 (weed kill ratio 5% or more, less than 20%) | 2 (weed kill ratio 20% or more, less than 40%) | c: corn, effect on crop grade (corn): 3 (weed kill ratio 40% or more, less than 70%); I: Italian ryegrass, weedkilling efficacy grade (Italian ryegrass): 5 (weed kill ratio 90% or more, (practically complete withering)) |
| CC(C)(C(=O)Nc1ccccn1)N1COCN(c2ccccc2)C1=O [A-2-01] | 3 (weed kill ratio 40% or more, less than 70%) | 4 (weed kill ratio 70% or more, less than 90%) | 5 (weed kill ratio 90% or more, (practically complete withering)) | 3 (weed kill ratio 40% or more, less than 70%) | 0 (weed kill ratio 5% or less (practically no effect)) | 5 (weed kill ratio 90% or more, (practically complete withering)) | 5 (weed kill ratio 90% or more, (practically complete withering)) | 4 (weed kill ratio 70% or more, less than 90%) | 5 (weed kill ratio 90% or more, (practically complete withering)) | 0 (weed kill ratio 5% or less (practically no effect)) | 5 (weed kill ratio 90% or more, (practically complete withering)) | 0 (weed kill ratio 5% or less (practically no effect)) | 2 (weed kill ratio 20% or more, less than 40%) | 3 (weed kill ratio 40% or more, less than 70%) | 4 (weed kill ratio 70% or more, less than 90%) | 4 (weed kill ratio 70% or more, less than 90%) | 2 (weed kill ratio 20% or more, less than 40%) | 3 (weed kill ratio 40% or more, less than 70%) | 2 (weed kill ratio 20% or more, less than 40%) | 0 (weed kill ratio 5% or less (practically no effect)) | c: corn, effect on crop grade (corn): 0 (weed kill ratio 5% or less (practically no effect)); I: Italian ryegrass, weedkilling efficacy grade (Italian ryegrass): 5 (weed kill ratio 90% or more, (practically complete withering)) |
| CC(C)(C(=O)Nc1cccc(F)n1)N1COCN(c2ccccc2)C1=O [A-2-05] | 5 (weed kill ratio 90% or more, (practically complete withering)) | 5 (weed kill ratio 90% or more, (practically complete withering)) | 5 (weed kill ratio 90% or more, (practically complete withering)) | 4 (weed kill ratio 70% or more, less than 90%) | 3 (weed kill ratio 40% or more, less than 70%) | 5 (weed kill ratio 90% or more, (practically complete withering)) | 5 (weed kill ratio 90% or more, (practically complete withering)) | 5 (weed kill ratio 90% or more, (practically complete withering)) | 5 (weed kill ratio 90% or more, (practically complete withering)) | 5 (weed kill ratio 90% or more, (practically complete withering)) | 5 (weed kill ratio 90% or more, (practically complete withering)) | 3 (weed kill ratio 40% or more, less than 70%) | 4 (weed kill ratio 70% or more, less than 90%) | 5 (weed kill ratio 90% or more, (practically complete withering)) | 4 (weed kill ratio 70% or more, less than 90%) | 5 (weed kill ratio 90% or more, (practically complete withering)) | 5 (weed kill ratio 90% or more, (practically complete withering)) | 4 (weed kill ratio 70% or more, less than 90%) | 4 (weed kill ratio 70% or more, less than 90%) | 4 (weed kill ratio 70% or more, less than 90%) | c: corn, effect on crop grade (corn): 4 (weed kill ratio 70% or more, less than 90%); I: Italian ryegrass, weedkilling efficacy grade (Italian ryegrass): 5 (weed kill ratio 90% or more, (practically complete withering)) |
